Test systems include UACC-62 melanoma; RXF-631 renal; SK-MEL-2 melanoma; DMS 273 small cell lung; A549 NSCLC; NCI-H460 lung; 786-0 renal; LXFL 529 NSCLC; MOLT-4 leukemia; RXF 393 renal.
What all share (experiment): NCI tumour cell line growth inhibition, 48 h

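Compound exposure: 48 hours, 5 concentrations, 96-well plates. Here, GI50 denotes the concentration required for 50% inhibition of growth. TGI: concentration producing complete growth inhibition.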

This is an account of results in PubChem BioAssay (NCI).

With `COc1ccccc1NC(=O)C1=C(C)NC(C)=C(C(=O)Nc2ccccc2OC)C1c1ccccc1F`, the TGI with UACC-62 melanoma, in the assay on RXF-631 renal, in the assay on SK-MEL-2 melanoma, in the assay with DMS 273 small cell lung, in the assay on A549 NSCLC and with NCI-H460 lung was above 100 µM throughout. Moreover, the TGI in the assay on 786-0 renal, in the assay with LXFL 529 NSCLC and with MOLT-4 leukemia was above 100 µM in each case.
Regarding `C[N+](C)(C)CC(=O)N/N=C(/Cc1nc2c3c(ccc2[nH]c1=O)C(=O)c1ccccc1C3=O)C(=O)Nc1ccc(Cl)c(Cl)c1`, the TGI in the assay with RXF 393 renal, in the assay with UACC-62 melanoma, with RXF-631 renal, with SK-MEL-2 melanoma, in the assay on A549 NSCLC and in the assay on NCI-H460 lung was above 100 µM in each case. The TGI in the assay on 786-0 renal and in the assay with MOLT-4 leukemia was above 100 µM throughout.
For the molecule `COc1cccc(NC(=O)CC(=O)N2N=C(N(CCC#N)c3ccc(Cl)cc3)CC2c2ccccc2)c1` (stereo not given), the TGI with RXF 393 renal, in the assay on UACC-62 melanoma, in the assay with SK-MEL-2 melanoma, in the assay with DMS 273 small cell lung, in the assay on A549 NSCLC and in the assay with NCI-H460 lung was above 100 µM each time. Further, the TGI with 786-0 renal, in the assay with LXFL 529 NSCLC and in the assay on MOLT-4 leukemia was above 100 µM throughout.
With `COc1nc(NC2OCC(OC(C)=O)C(OC(C)=O)C2OC(C)=O)c(N=CC=Nc2c(NC3OCC(OC(C)=O)C(OC(C)=O)C3OC(C)=O)nc(OC)n(C)c2=O)c(=O)n1C` (stereo not given), the TGI in the assay with RXF 393 renal, with UACC-62 melanoma, with SK-MEL-2 melanoma, with DMS 273 small cell lung, with A549 NSCLC and with NCI-H460 lung was above 100 µM throughout. The TGI in the assay on 786-0 renal and in the assay with LXFL 529 NSCLC was above 100 µM throughout.
Take `CCCCCCCCCCCCOC(=S)NCCCC`: the TGI in the assay with RXF 393 renal was determined as 56.8 µM; in the assay on UACC-62 melanoma, 40.6 µM; in the assay on RXF-631 renal, 55.6 µM; with SK-MEL-2 melanoma it was 44.2 µM; in the assay on DMS 273 small cell lung, 41 µM; in the assay with NCI-H460 lung, 53.2 µM. The TGI is 67.7 µM in the assay on 786-0 renal, above 100 µM in the assay with LXFL 529 NSCLC and 36 µM in the assay with MOLT-4 leukemia.
As to `COC(=O)CCC(NC(=S)N/N=C(\C)c1nccs1)C(=O)OC` (stereo not given), the TGI in the assay on RXF 393 renal, with UACC-62 melanoma, with RXF-631 renal, in the assay on SK-MEL-2 melanoma, with A549 NSCLC and in the assay with NCI-H460 lung was above 100 µM each time. The TGI in the assay with 786-0 renal and in the assay with LXFL 529 NSCLC was above 100 µM each time.
For the molecule `NC(=S)N/N=C(/CC(=O)c1ccccc1)C(=O)Nc1ccc(Cl)c(Cl)c1`, the TGI in the assay on RXF 393 renal, in the assay on UACC-62 melanoma, in the assay on SK-MEL-2 melanoma, with DMS 273 small cell lung, in the assay with A549 NSCLC and with NCI-H460 lung was above 100 µM throughout. The TGI in the assay with 786-0 renal is above 100 µM; in the assay with LXFL 529 NSCLC it was above 100 µM; in the assay with MOLT-4 leukemia, 93.7 µM.
As for `CC1=NCCc2c1[nH]c1cc(O)ccc21`, the TGI in the assay on RXF 393 renal, with UACC-62 melanoma, in the assay with RXF-631 renal, with SK-MEL-2 melanoma, with A549 NSCLC and with NCI-H460 lung was above 100 µM throughout. Besides, the TGI in the assay with 786-0 renal, in the assay with LXFL 529 NSCLC and in the assay with MOLT-4 leukemia was above 100 µM each time.
As to `CC(C)(C)C#CC1=C(Br)C(=O)OC1`, the GI50 with RXF 393 renal is 2.44 µM; in the assay on UACC-62 melanoma, 13.2 µM; with SK-MEL-2 melanoma it was 12.6 µM; in the assay on A549 NSCLC it was 1.3 µM; with NCI-H460 lung it was 3.72 µM; in the assay with 786-0 renal, 2.27 µM. Further, the GI50 in the assay on MOLT-4 leukemia is 1.26 µM. The TGI in the assay with RXF 393 renal is 6.8 µM; in the assay on UACC-62 melanoma it was above 45.5 µM; in the assay on SK-MEL-2 melanoma, 31.7 µM; in the assay with A549 NSCLC it was 8.73 µM; in the assay with NCI-H460 lung it was 15.1 µM; with 786-0 renal, 5.96 µM. In addition, the TGI in the assay with MOLT-4 leukemia came to 5.03 µM.
`Nc1cc2cccc[n+]2c2cc(Cl)ccc12`: the GI50 in the assay with RXF 393 renal was 87.9 µM; in the assay with UACC-62 melanoma, 18.7 µM; in the assay with SK-MEL-2 melanoma, 0.0664 µM; in the assay with A549 NSCLC, 56.3 µM; in the assay on NCI-H460 lung, 18 µM; in the assay on 786-0 renal, 8.16 µM. For the same molecule, in the assay on MOLT-4 leukemia, the GI50 is 4.22 µM. The TGI with UACC-62 melanoma amounted to 45.9 µM; in the assay on SK-MEL-2 melanoma it was 18.4 µM; in the assay on NCI-H460 lung it was 49.6 µM.
For `CC(C)(C)C[C@H]1NC(C(=O)NCC[C@H](O)CO)[C@H](c2cccc(Cl)c2)[C@@]12C(=O)Nc1cc(Cl)c(F)cc12` (stereo not given in full), the GI50 in the assay on RXF 393 renal was 13.7 µM; in the assay on UACC-62 melanoma, 1.6 µM; with SK-MEL-2 melanoma it was 14.4 µM; in the assay with A549 NSCLC, 3.13 µM; in the assay on NCI-H460 lung, 2.45 µM; with 786-0 renal, 17 µM. The GI50 in the assay on MOLT-4 leukemia is 2.19 µM. The TGI in the assay with RXF 393 renal came out at 27.1 µM; in the assay on UACC-62 melanoma it was 15.8 µM; in the assay on SK-MEL-2 melanoma, 28.6 µM; with A549 NSCLC, 17.4 µM; with NCI-H460 lung, 14.6 µM; with 786-0 renal, 33.8 µM. The TGI in the assay with MOLT-4 leukemia was found to be 8.22 µM.
Take `O=Cc1cn(C(=O)c2ccccc2)c2ccccc12`: the TGI with RXF 393 renal, in the assay on UACC-62 melanoma, in the assay on SK-MEL-2 melanoma, in the assay on DMS 273 small cell lung, in the assay with A549 NSCLC and with NCI-H460 lung was above 100 µM in each case. For the same molecule, the TGI in the assay with 786-0 renal, with LXFL 529 NSCLC and with MOLT-4 leukemia was above 100 µM in each case.
On to `CCCCOc1ccc(NC(N)=Nc2ccc(Cl)cc2)cc1`, for which the TGI was 25.5 µM in the assay with RXF 393 renal; 26 µM with UACC-62 melanoma; 9.73 µM in the assay with SK-MEL-2 melanoma; 10.3 µM with A549 NSCLC; 8.91 µM in the assay with NCI-H460 lung; 23.2 µM in the assay with 786-0 renal. Also, in the assay with MOLT-4 leukemia, the TGI is above 42 µM.
As to `COc1cc2c(cc1OC)C(N(C)C)C(c1ccccc1)=C2Cl` (stereo not given), the TGI in the assay with RXF 393 renal is 29.3 µM; with RXF-631 renal, 30.5 µM; with SK-MEL-2 melanoma it was 36 µM; in the assay on DMS 273 small cell lung it was 30.9 µM; in the assay on NCI-H460 lung it was 39.2 µM; in the assay on 786-0 renal, 73.9 µM. Also, in the assay on MOLT-4 leukemia, the TGI was 39.6 µM.
